Results: patent US20090311249A1, “Capecitabine Combination Therapy” (priority 2006, published 2009)

Experiments:
[1] = Phase 1b trial: pharmacokinetics of CAPE and its key metabolites in plasma; assay type: in vivo, human; settings: AP23573 co-administered with CAPE
Text: Planned pharmacokinetic (PK) and pharmacodynamic (PD) studies included: analysis of plasma, peripheral blood mononuclear cells (PBMC), skin, and tumor samples for effects on mTOR associated pathways*, VEGF* levels and the metabolism of CAPE and fluoropyrimidines (results of studies marked with a “*” are not presented herein).

[2] = Phase I and phase 2 single-agent trials of AP23573; assay type: in vivo, human; settings: other dosing schedules
[3] = system: VEGF production in tumor cells; settings: in vitro; cited from earlier work
[4] = In vitro combination experiments of AP23573 with cytotoxics; assay type: cell-based; settings: with several cytotoxics including 5-fluorouracil (5FU)
[5] = system: VEGF; settings: patients treated with AP23573; cited from earlier work

SMILES	pharmacokinetics of 5FU [1]	dose limiting toxicity [2]	effect on VEGF production [3]	combination effect in vitro [4]	VEGF levels [5]
O=c1[nH]cc(F)c(=O)[nH]1 [5FU, 5-fluorouracil]	not be impacted				
CO[C@H]1C[C@@H]2CC[C@@H](C)[C@@](O)(O2)C(=O)C(=O)N2CCCC[C@H]2C(=O)O[C@H]([C@H](C)C[C@@H]2CC[C@@H](OP(C)(C)=O)[C@H](OC)C2)CC(=O)[C@H](C)/C=C(\C)[C@@H](O)[C@@H](OC)C(=O)[C@H](C)C[C@H](C)/C=C/C=C/C=C/1C [AP23573]		oral mucositis	inhibits VEGF production	at least additive	reduced VEGF levels
